Our source for the IC50 values is patent publication US10899736B2, “Processes and intermediates for making a JAK inhibitor” (Incyte Corporation, priority 2018, dated 2021).

For this test, the target named is T1, human JAK1 (a.a. 837-1142) catalytic domain (Homo sapiens, UniProt P23458).
T1 construct: human JAK1 (a.a. 837-1142); His tag (N); made in house; host or cells: insect cells (baculovirus)
Kind of test: In vitro JAK kinase assay (HTRF, phosphorylation of biotinylated peptide). The test is classed as biochemical. To be noted: measured at 1 mM ATP. The procedure: The compound of Formula I was tested for inhibitory activity of JAK targets according to the following in vitro assay described in Park et al., Analytical Biochemistry 1999, 269, 94-104. The catalytic domains of human JAK1 (a.a. 837-1142) and JAK2 (a.a. 828-1132) with an N-terminal His tag were expressed using baculovirus in insect cells and purified. The catalytic activity of JAK1 and JAK2 was assayed by measuring the phosphorylation of a biotinylated peptide. The phosphorylated peptide was detected by homogenous time resolved fluorescence (HTRF). IC50s of compounds were measured for each kinase in the 40 micro L reactions that contain the enzyme, ATP and 500 nM peptide in 50 mM Tris (pH 7.8) buffer with 100 mM NaCl, 5 mM DTT, and 0.1 mg/mL (0.01%) BSA. For the 1 mM IC50 measurements, ATP concentration in the reactions was 1 mM. Reactions were carried out at room temperature for 1 hr and then stopped with 20 μL 45 mM EDTA, 300 nM SA-APC, 6 nM Eu-Py20 in assay buffer (Perkin Elmer, Boston, Mass.). Binding to the Europium labeled antibody took place for 40 minutes and HTRF signal was measured on a Fusion plate reader (Perkin Elmer, Boston, Mass.).
(In general: Time-resolved FRET reads energy transfer from a long-lived donor to a nearby acceptor.)

pIC50: −log10 of the molar value.

T1 sequence (P23458 849-1154): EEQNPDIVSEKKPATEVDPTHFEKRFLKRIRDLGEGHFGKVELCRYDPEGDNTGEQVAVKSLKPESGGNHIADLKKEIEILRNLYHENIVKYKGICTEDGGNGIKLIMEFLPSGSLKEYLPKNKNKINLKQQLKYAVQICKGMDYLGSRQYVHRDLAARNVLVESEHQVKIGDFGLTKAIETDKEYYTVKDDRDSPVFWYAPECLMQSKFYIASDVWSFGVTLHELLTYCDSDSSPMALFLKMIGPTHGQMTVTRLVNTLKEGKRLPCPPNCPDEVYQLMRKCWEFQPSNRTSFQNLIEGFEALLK

On to `N#CCC1(n2cc(-c3ncnc4[nH]ccc34)cn2)CN(C2CCN(C(=O)c3ccnc(C(F)(F)F)c3F)CC2)C1` [Formula I, {1-{1-[3-fluoro-2-(trifluoromethyl)isonicotinoyl]piperidin-4-yl}-3-[4-(7H-pyrrolo[2,3-d]pyrimidin-4-yl)-1H-pyrazol-1-yl]azetidin-3-yl}acetonitrile], for which the negative-log IC50 (pIC50) (commonly the IC50 on a negative log10 scale, so that one unit is a factor of ten) is greater than 8.30.
